Active and inactive are the calls of the source. No cut-off for these calls is given here.
Assays:
Mus musculus [1] = species: Mus musculus; experiment: Inhibition of p210Bcr-Abl phosphorylation in gleevec-sensitive mouse 32D cells at 10 uM
HL-60 [2] = experiment: Effect on PMA-stimulated human HL60 cells assessed as recovery of ROS metabolism; format: functional, cell-based
Mus musculus [3] = species: Mus musculus; experiment: Inhibition of p210Bcr-Abl phosphorylation in gleevec-resistant mouse 32D cells at 10 uM
[4] = Reduction of clonogenic activity in Bcr-Abl expressing mouse 32D clone cells; conditions: read-out: LD50
HL-60 [5] = experiment: Effect on zymosan-stimulated human HL60 cells assessed as recovery of ROS metabolism; format: functional, cell-based
HL-60 [6] = experiment: Growth inhibition of human HL60 cells after 96 hrs; format: functional, cell-based
HL-60 [7] = experiment: Growth inhibition of human HL60 cells upto 100 uM after 96 hrs; format: functional, cell-based
[8] = molecular target: Proto-oncogene tyrosine-protein kinase Src (Homo sapiens) (UniProt P12931); experiment: Inhibition of recombinant human c-Src
Sequence of Proto-oncogene tyrosine-protein kinase Src (Homo sapiens) (P12931 2-536 limits assumed): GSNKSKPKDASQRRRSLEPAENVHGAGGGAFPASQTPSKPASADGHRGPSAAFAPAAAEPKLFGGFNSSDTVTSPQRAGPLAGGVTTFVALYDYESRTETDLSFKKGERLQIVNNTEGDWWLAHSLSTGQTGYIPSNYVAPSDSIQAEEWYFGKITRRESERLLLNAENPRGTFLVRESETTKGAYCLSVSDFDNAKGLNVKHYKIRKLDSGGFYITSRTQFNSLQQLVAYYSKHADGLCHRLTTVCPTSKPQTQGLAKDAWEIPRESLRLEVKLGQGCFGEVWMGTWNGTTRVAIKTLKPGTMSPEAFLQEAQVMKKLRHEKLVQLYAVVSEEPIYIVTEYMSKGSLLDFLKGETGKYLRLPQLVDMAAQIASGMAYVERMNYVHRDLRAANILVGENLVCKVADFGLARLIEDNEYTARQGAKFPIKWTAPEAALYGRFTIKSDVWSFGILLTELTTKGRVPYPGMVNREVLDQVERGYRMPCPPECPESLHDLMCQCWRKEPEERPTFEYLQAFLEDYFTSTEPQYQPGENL

SMILES	Activity (Mus musculus [1])	Activity (HL-60 [2])	Activity (Mus musculus [3])	CC50 [4] [nM]	Activity (HL-60 [5])	Activity (HL-60 [6])	Activity (HL-60 [7])	Activity [8]
O=C(Nc1nnc(SCc2ccc(F)cc2)s1)c1ccc(F)cc1	Active	Active	Active	2200	Active	Active	inactive	–
O=C(Nc1nnc(CCc2ccccc2)s1)c1ccc(I)cc1	–	–	–	–	–	–	–	inactive

Source: ChEMBL document CHEMBL1142311, “Discovery and SAR of 1,3,4-thiadiazole derivatives as potent Abl tyrosine kinase inhibitors and cytodifferentiating agents” (Bioorg Med Chem Lett, 2008)
